Data published in ChEMBL document CHEMBL5214960 (J Med Chem, 2022).
Residue numbers refer to the chain shown, from its start. Converted amounts (≈) assume the structure as drawn.

Experiments:
[1] = Aqueous solubility of compound at pH 6 by HPLC analysis; assay type: physicochemical; conditions: buffer
[2] = target: CYP2D6 (Homo sapiens, UniProt P10635); assay: Inhibition of human hepatic CYP2D6 using bufuralol HCL as substrate measured after 3 mins by LC-MS analysis relative to control; assay type: ADME, tissue-based; design: concentration or dose not given beside the values; conditions: human hepatic CYP2D6 (liver), probe bufuralol HCl
[3] = target: CYP2C9 (Homo sapiens, UniProt P11712); assay: Inhibition of human hepatic CYP2C9 using diclofenac as substrate measured after 10 mins by LC-MS analysis relative to control; assay type: ADME, tissue-based; design: concentration or dose not given beside the values; conditions: human hepatic CYP2C9 (liver), probe diclofenac
[4] = target: CYP3A4 (Homo sapiens, UniProt P08684); assay: Inhibition of human hepatic CYP3A4 using midazolam as substrate measured after 3 mins by LC-MS analysis relative to control; assay type: ADME, tissue-based; design: concentration or dose not given beside the values; conditions: human hepatic CYP3A4 (liver), probe midazolam
[5] = Metabolic stability in human hepatic microsome at 4 uM measured after 30 mins by LC-MS analysis; assay type: ADME; conditions: liver microsomes, read-out: Stability
[6] = Metabolic stability in mouse hepatic microsome at 4 uM measured after 30 mins by LC-MS analysis; assay type: ADME; conditions: liver microsomes, read-out: Stability
[7] = Metabolic stability in dog hepatic microsome at 4 uM measured after 30 mins by LC-MS analysis; assay type: ADME, Canis lupus familiaris; conditions: liver microsomes, read-out: Stability
[8] = Plasma protein binding in mouse assessed as unbound fraction measured after 4.5 hrs by LC-MS/MS analysis; assay type: ADME, cell-free
[9] = Inhibition of PTP-Meg2 (unknown origin); design: species or system Homo sapiens
[10] = target: T1, Low molecular weight phosphotyrosine protein phosphatase (Mus musculus, UniProt Q9D358); assay: Inhibition of N-terminal His-tagged full length mouse LMW-PTP expressed in Escherichia coli BL21(DE3) by […] analysis
T1 sequence (Q9D358 whole entry): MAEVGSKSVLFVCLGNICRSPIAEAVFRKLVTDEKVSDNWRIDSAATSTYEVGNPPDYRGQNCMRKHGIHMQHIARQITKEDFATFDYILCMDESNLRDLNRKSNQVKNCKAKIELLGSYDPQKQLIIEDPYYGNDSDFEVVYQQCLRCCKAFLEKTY

[11] = AUC(0 to 8 hrs) in CD-1 mouse plasma at 10 mg/kg, po measured after 8 hrs by LC-MS/MS analysis; assay type: ADME, organism-based; design: dose 10 mg/kg, time 8 hrs, route po; conditions: in vivo
[12] = AUC(0 to 8 hrs) in CD-1 mouse plasma at 2 mg/kg, iv measured after 8 hrs by LC-MS/MS analysis; assay type: ADME, organism-based; design: dose 2 mg/kg, time 8 hrs, route iv; conditions: in vivo
[13] = Cmax in CD-1 mouse plasma at 10 mg/kg, po measured after 8 hrs by LC-MS/MS analysis; assay type: ADME, organism-based; design: dose 10 mg/kg, time 8 hrs, route po; conditions: mouse, in vivo, 8 h
[14] = Cmax in CD-1 mouse plasma at 2 mg/kg, iv measured after 8 hrs by LC-MS/MS analysis; assay type: ADME, organism-based; design: time 8 hrs, dose 2 mg/kg, route iv
[15] = Unbound Cmax in plasma of CD-1 mouse at 10 mg/kg, po measured after 8 hrs by LC-MS/MS analysis; assay type: ADME, organism-based; conditions: in vivo
[16] = Unbound Cmax in plasma of CD-1 mouse at 2 mg/kg, iv measured after 8 hrs by LC-MS/MS analysis; assay type: ADME, organism-based; conditions: in vivo
[17] = Volume of distribution at steady state in CD-1 mouse plasma at 2 mg/kg, iv measured after 8 hrs by LC-MS/MS analysis; assay type: ADME, organism-based; conditions: in vivo
[18] = Half life in CD-1 mouse plasma at 2 mg/kg, iv measured after 8 hrs by LC-MS/MS analysis; assay type: ADME, organism-based; conditions: mouse, in vivo, iv, 2 mg/kg, 8 h
[19] = Half life in CD-1 mouse plasma at 10 mg/kg, po measured after 8 hrs by LC-MS/MS analysis; assay type: ADME, organism-based; conditions: in vivo
[20] = Oral bioavailability in CD-1 mouse plasma at 10 mg/kg measured after 8 hrs by LC-MS/MS analysis; assay type: ADME, organism-based
[21] = AUC(0 to 12 hrs) in Sprague-Dawley rat plasma at 30 mg/kg, po measured after 24 hrs by LC-MS/MS analysis; assay type: ADME, organism-based; design: time 24 hrs, dose 30 mg/kg, route po; conditions: in vivo
[22] = Cmax in Sprague-Dawley rat plasma at 30 mg/kg, po measured after 24 hrs by LC-MS/MS analysis; assay type: ADME, organism-based; design: time 24 hrs, dose 30 mg/kg, route po; conditions: in vivo
[23] = Unbound Cmax in plasma of Sprague-Dawley rat at 30 mg/kg, po measured after 24 hrs by LC-MS/MS analysis; assay type: ADME, organism-based; conditions: in vivo
[24] = Tmax in Sprague-Dawley rat plasma at 30 mg/kg, po measured after 24 hrs by LC-MS/MS analysis; assay type: ADME, organism-based; conditions: in vivo
[25] = Half life in Sprague-Dawley rat plasma at 30 mg/kg, po measured after 24 hrs by LC-MS/MS analysis; assay type: ADME, organism-based; conditions: in vivo
[26] = target: T2, Low molecular weight phosphotyrosine protein phosphatase (Rattus norvegicus, UniProt P41498); assay: Inhibition of N-terminal His-tagged full length rat LMW-PTP expressed in Escherichia coli BL21(DE3)
T2 sequence (P41498 whole entry): T1 sequence (Q9D358 whole entry) with K35N, R65K, K80R, Y158H

[27] = target: T3, Low molecular weight phosphotyrosine protein phosphatase (Homo sapiens, UniProt P24666); assay: Inhibition of His-tagged human LMW-PTP expressed in Escherichia coli BL21 using pNPP as substrate incubated for 10 mins by microplate reader based spectrophotometric analysis
T3 sequence (P24666 whole entry): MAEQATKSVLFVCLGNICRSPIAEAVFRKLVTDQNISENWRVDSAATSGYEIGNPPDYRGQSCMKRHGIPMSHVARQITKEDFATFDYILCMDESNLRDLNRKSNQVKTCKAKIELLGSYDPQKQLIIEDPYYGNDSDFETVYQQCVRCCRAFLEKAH

CYP3A4, sequence (P08684 whole entry): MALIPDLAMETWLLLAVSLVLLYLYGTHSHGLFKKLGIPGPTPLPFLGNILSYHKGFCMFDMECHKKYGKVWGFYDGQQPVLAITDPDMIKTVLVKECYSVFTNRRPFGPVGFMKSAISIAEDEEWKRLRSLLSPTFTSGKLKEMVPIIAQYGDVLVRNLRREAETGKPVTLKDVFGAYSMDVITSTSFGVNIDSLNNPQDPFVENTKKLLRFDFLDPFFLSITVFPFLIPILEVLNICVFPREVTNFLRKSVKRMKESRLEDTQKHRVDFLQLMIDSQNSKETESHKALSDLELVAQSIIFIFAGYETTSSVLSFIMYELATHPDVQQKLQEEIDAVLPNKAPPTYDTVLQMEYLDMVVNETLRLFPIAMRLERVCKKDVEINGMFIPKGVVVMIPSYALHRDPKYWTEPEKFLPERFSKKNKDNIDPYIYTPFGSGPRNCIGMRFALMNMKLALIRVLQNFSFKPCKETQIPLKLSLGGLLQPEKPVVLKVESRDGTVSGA
CYP2D6, sequence (P10635 whole entry): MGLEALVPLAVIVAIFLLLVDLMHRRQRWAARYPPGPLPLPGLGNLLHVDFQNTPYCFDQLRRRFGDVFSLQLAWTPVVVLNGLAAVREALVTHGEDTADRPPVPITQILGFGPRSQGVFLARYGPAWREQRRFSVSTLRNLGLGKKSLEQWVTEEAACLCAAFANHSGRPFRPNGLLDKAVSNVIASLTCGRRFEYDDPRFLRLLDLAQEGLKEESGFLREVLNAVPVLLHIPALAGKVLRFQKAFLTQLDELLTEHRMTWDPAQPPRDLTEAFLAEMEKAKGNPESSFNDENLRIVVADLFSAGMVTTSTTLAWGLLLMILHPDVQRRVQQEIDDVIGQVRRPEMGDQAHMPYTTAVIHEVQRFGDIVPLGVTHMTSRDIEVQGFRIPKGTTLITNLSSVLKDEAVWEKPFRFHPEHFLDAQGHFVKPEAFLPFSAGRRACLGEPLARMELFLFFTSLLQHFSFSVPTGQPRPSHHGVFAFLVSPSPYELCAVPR
CYP2C9, sequence (P11712 whole entry): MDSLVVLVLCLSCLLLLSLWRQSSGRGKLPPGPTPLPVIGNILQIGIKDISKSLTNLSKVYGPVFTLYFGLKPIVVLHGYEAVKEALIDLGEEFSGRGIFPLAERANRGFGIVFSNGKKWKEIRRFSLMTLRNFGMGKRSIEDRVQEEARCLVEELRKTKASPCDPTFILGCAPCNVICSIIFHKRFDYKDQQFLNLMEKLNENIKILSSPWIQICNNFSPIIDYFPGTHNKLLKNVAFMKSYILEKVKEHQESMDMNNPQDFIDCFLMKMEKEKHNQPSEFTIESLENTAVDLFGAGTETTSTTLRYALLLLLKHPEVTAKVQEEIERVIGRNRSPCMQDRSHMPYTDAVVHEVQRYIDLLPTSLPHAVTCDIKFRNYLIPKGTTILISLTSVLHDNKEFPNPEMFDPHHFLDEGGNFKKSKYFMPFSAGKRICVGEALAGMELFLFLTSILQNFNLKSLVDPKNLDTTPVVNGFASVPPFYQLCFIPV

O=C(Nc1nc2ccccc2s1)C(c1ccccc1)S(=O)(=O)O (centres undefined)
solubility [1]: 660 µg/mL (≈ 1890 µM) | inhibition at 0.05 h [2]: 5% | inhibition at 10 min [3]: 69% | inhibition at 0.05 h [4]: 9% | remaining at 0.5 h, 4 µM [5]: 54% | remaining at 0.5 h, 4 µM [6]: 17% | remaining at 0.5 h, 4 µM [7]: 61% | Fu [8]: < 0.006

Cc1c(Br)cc(NC(=O)C(c2ccccc2)S(=O)(=O)O)cc1Br (centres undefined)
IC50 [9]: > 200000 nM | IC50 [10]: 200 nM | solubility [1]: 920 µg/mL (≈ 1990 µM) | inhibition at 0.05 h [2]: 1% | inhibition at 10 min [3]: 79% | inhibition at 0.05 h [4]: 0% | remaining at 0.5 h, 4 µM [5]: 34% | remaining at 0.5 h, 4 µM [6]: 50% | remaining at 0.5 h, 4 µM [7]: 59% | Fu [8]: < 0.006 | AUC [11]: 5.24 µM·h | AUC [12]: 2.09 µM·h | Cmax [13]: 1020 nM | Cmax [14]: 4940 nM | fCmax [15]: < 6 nM | fCmax [16]: < 30 nM | Vdss [17]: 3.4 L/kg | t1/2 [18]: 2 h | t1/2 [19]: 5.2 h | bioavailability ([20]; CD-1, mouse, plasma): 50% | AUC [21]: 37.1 µM·h | Cmax [22]: 6120 nM | fCmax [23]: < 43 nM | Tmax [24]: 2.7 h | t1/2 [25]: 3 h | IC50 [26]: 300 nM

CS(=O)(=O)c1ccc2nc(NC(=O)CS(=O)(=O)O)sc2c1
IC50 [27]: 300 nM

Cc1cc([N+](=O)[O-])c2nc(NC(=O)CS(=O)(=O)O)sc2c1
IC50 [27]: 400 nM

Cc1c(Br)cc(NC(=O)[C@@H](c2cncs2)S(=O)(=O)O)cc1Br
IC50 [27]: 11400 nM

O=C(Nc1nccs1)NS(=O)(=O)O
IC50 [27]: 49 nM

O=C(CS(=O)(=O)O)Nc1nc2ccc(C(F)(F)F)cc2s1
IC50 [27]: 600 nM

O=C(CS(=O)(=O)O)Nc1cnc(N2CCOCC2)c(Br)c1
IC50 [27]: 1200 nM

O=C(CS(=O)(=O)O)Nc1ccccc1
IC50 [27]: > 100000 nM

O=C(CS(=O)(=O)O)Nc1nc2cc([N+](=O)[O-])ccc2s1
IC50 [27]: 400 nM

O=C(CS(=O)(=O)O)Nc1ncc(-c2ccccc2)s1
IC50 [27]: 1500 nM

O=C(CS(=O)(=O)O)Nc1nccs1
IC50 [27]: 12200 nM

O=C(CS(=O)(=O)O)Nc1nc2ccc(C(=O)N3CCCC3)cc2s1
IC50 [27]: 300 nM

O=C(CS(=O)(=O)O)Nc1cc(Br)cc(C(F)(F)F)c1
IC50 [27]: 5200 nM

Cc1ccc2nc(NC(=O)CS(=O)(=O)O)sc2c1
IC50 [27]: 1700 nM

O=C(CS(=O)(=O)O)Nc1nc2cccc([N+](=O)[O-])c2s1
IC50 [27]: 1500 nM

O=C(CS(=O)(=O)O)Nc1cc(Br)cc2ccccc12
IC50 [27]: 6000 nM

O=C(CS(=O)(=O)O)Nc1cc(Br)cc([N+](=O)[O-])c1
IC50 [27]: 3400 nM

O=C(CS(=O)(=O)O)Nc1nc2ccccc2s1
solubility [1]: 530 µg/mL (≈ 1950 µM) | inhibition at 0.05 h [2]: 0% | inhibition at 10 min [3]: 1% | inhibition at 0.05 h [4]: 6% | remaining at 0.5 h, 4 µM [5]: 18% | remaining at 0.5 h, 4 µM [6]: 3% | remaining at 0.5 h, 4 µM [7]: 11% | Fu [8]: 0.209

O=C(Nc1ccc(N2CCOCC2)c(Br)c1)NS(=O)(=O)O
IC50 [27]: 8 nM

O=C(CS(=O)(=O)O)Nc1cc(C(F)(F)F)cc(C(F)(F)F)c1
IC50 [27]: 5400 nM

O=C(CS(=O)(=O)O)Nc1nc2ccc([N+](=O)[O-])cc2s1
IC50 [27]: 200 nM | solubility [1]: 590 µg/mL (≈ 1860 µM) | inhibition at 0.05 h [2]: 1% | inhibition at 10 min [3]: 0% | inhibition at 0.05 h [4]: 0% | remaining at 0.5 h, 4 µM [5]: 53% | remaining at 0.5 h, 4 µM [6]: 4% | remaining at 0.5 h, 4 µM [7]: 7% | Fu [8]: 0.057

O=C(CS(=O)(=O)O)Nc1ccc(N2CCOCC2)c(Br)c1
IC50 [10]: 36 nM | IC50 [27]: 1500 nM | solubility [1]: 760 µg/mL (≈ 2000 µM) | inhibition at 0.05 h [2]: 20% | inhibition at 10 min [3]: 64% | inhibition at 0.05 h [4]: 36% | remaining at 0.5 h, 4 µM [5]: 3% | remaining at 0.5 h, 4 µM [6]: 3% | remaining at 0.5 h, 4 µM [7]: 11% | Fu [8]: 0.243 | AUC [11]: 1.94 µM·h | AUC [12]: 1.72 µM·h | Cmax [13]: 483 nM | Cmax [14]: 8090 nM | fCmax [15]: 117 nM | fCmax [16]: 1966 nM | Vdss [17]: 0.73 L/kg | t1/2 [18]: 0.2 h | t1/2 [19]: 4.2 h | F ([20]; mouse, in vivo, po, 10 mg/kg, 8 h): 23% | AUC [21]: 1.23 µM·h | Cmax [22]: 258 nM | fCmax [23]: 43 nM | Tmax [24]: 1 h | t1/2 [25]: 6.8 h | IC50 [26]: 36 nM

Cc1c(Br)cc(NC(=O)[C@@H](C#N)S(=O)(=O)O)cc1Br
IC50 [27]: 4400 nM

O=C(CS(=O)(=O)O)Nc1cc(Br)cc(Br)c1
IC50 [27]: 6000 nM

O=C(CS(=O)(=O)O)Nc1cc(I)cc(I)c1
IC50 [27]: 3400 nM

O=C(Nc1ccccc1)NS(=O)(=O)O
IC50 [27]: 121 nM

N.O=C(Nc1nc2ccccc2s1)NS(=O)(=O)O
IC50 [27]: 56 nM | inhibition at 0.05 h [2]: 0% | inhibition at 10 min [3]: 0% | inhibition at 0.05 h [4]: 4% | remaining at 0.5 h, 4 µM [5]: 7% | remaining at 0.5 h, 4 µM [6]: 0% | remaining at 0.5 h, 4 µM [7]: 0% | Fu [8]: 0.07

O=C(CS(=O)(=O)O)Nc1cc(Cl)cc(Cl)c1
IC50 [27]: 8600 nM

O=C(CS(=O)(=O)O)Nc1cnc2ncccc2c1
IC50 [27]: 1500 nM
